From patent publication US6869589B1, “Cryptate compounds and methods for diagnosis and therapy” (Australian Nuclear Science & Technology Organization, priority 1999, dated 2005)

Tests used:
[1] = Effect of pH on complexation of ^64Cu by compound (3), monitored by ITLC-SG; assay type: physicochemical
Procedure: The effect of pH on complexation of ^64Cu by compound (3) was investigated. Compound (3) was diluted into buffers of pH 3.0, 4.0, 5.0, 6.0, 7.0, 8.0 and 9.0. A sufficient amount of ^64Cu was added and the rate of complexation was monitored at (t=1, 2.5, 5, 10, 60 and 90 mins) (see method below) by Instant Thin Layer Chromatography (ITLC-SG). Complete complexation (>98%) was achieved within 1 min for all pH ≧4.0. The rate of complexation at pH 3.0 was slower. (FIG. 2).
Monitoring Complexation by ITLC-SG
ITLC-SG strips (10 cm×0.8 cm) were spotted with ˜1 μL of reaction mixture 1 cm from the bottom of the strip (origin) and were developed in a solvent containing 0.1 M sodium acetate (pH 4.5): ethanol=9:1. ^64Cu-compound (3) remains at the origin (Rf=0.0), and “free” ^64Cu appears at the solvent front (Rf=1.0).

[2] = mouse, in vivo
Procedure: (§1) The biodistribution of the ^64Cu complexes of compounds (1), (3) and (4) (0.10 ml intravenous injection) were evaluated in balb/c mice (5 animals per time point) at 3, 5, 10, 15, 20 and 30 minute time intervals. Biodistribution studies were performed in duplicate.

[3] = Serum stability of ^67Cu complex in human plasma at 37° C., size exclusion chromatography; assay type: in vitro ADME; conditions: first 174 hours
Procedure: Serum stability studies were conducted by incubating a ^67Cu complex of related species (4) in human plasma at 37° C. [drawing 11]
At various time intervals, the complex was separated from the plasma by size exclusion chromatography and the complex breakdown was assessed. […] (FIGS. 1a and 1b).

[4] = Biodistribution of ^64Cu complexes in balb/c mice
Procedure: as §1

For `Nc1ccc(CNC23CNCCNCC(N)(CNCCNC2)CNCCNC3)cc1` [compound (3)], the “Time to complete complexation of ^64Cu” value ([1]; all pH ≧4.0) was ≤ 1 min, the “Complexation of ^64Cu (complete complexation)” value ([1]; all pH ≧4.0, within 1 min, ITLC-SG) was > 98% and the “Rate of complexation of ^64Cu” value ([1]; pH 3.0, compared with pH ≧4.0) was “slower”. The “Clearance of the complex (biodistribution, in words)” value [2] was “clear rapidly from the system”.

With `C1CNCC2CNCCNCC(CN1)CNCCNC2.[67Cu+2]` [^67Cu complex of compound (4)] the “Copper lost from the chelator” value [3] was “no more than 2%”.

In the case of `Nc1ccc(CNC23CNCCNCC(N)(CNCCNC2)CNCCNC3)cc1.[64Cu+2]` [^64Cu-labelled compound (3)], the “% injected dose per gram” value ([4]; BLADDER, 3 MIN) is reported as 11.36 % INJECTED DOSE PER GRAM, the “% injected dose per gram” value ([4]; BLADDER, 5 MIN) is reported as 12.31 % INJECTED DOSE PER GRAM and the “% injected dose per gram” value ([4]; BLADDER, 10 MIN) is reported as 14.36 % INJECTED DOSE PER GRAM. The “% injected dose per gram” value ([4]; BLADDER, 15 MIN) was 10.54 % INJECTED DOSE PER GRAM, the “% injected dose per gram” value ([4]; BLADDER, 20 MIN) was 13.45 % INJECTED DOSE PER GRAM and the “% injected dose per gram” value ([4]; BLADDER, 30 MIN) was 2.74 % INJECTED DOSE PER GRAM. The “% injected dose per gram” value ([4]; BLOOD, 3 MIN) was 7.74 % INJECTED DOSE PER GRAM, the “% injected dose per gram” value ([4]; BLOOD, 5 MIN) was 8.19 % INJECTED DOSE PER GRAM and the “% injected dose per gram” value ([4]; BLOOD, 10 MIN) was 5.23 % INJECTED DOSE PER GRAM. For the same compound, the “% injected dose per gram” value ([4]; BLOOD, 15 MIN) was 4.39 % INJECTED DOSE PER GRAM, the “% injected dose per gram” value ([4]; BLOOD, 20 MIN) was 3.05 % INJECTED DOSE PER GRAM and the “% injected dose per gram” value ([4]; BLOOD, 30 MIN) was 1.25 % INJECTED DOSE PER GRAM. For the same compound, the “% injected dose per gram” value ([4]; BONE, 3 MIN) was 1.68 % INJECTED DOSE PER GRAM, the “% injected dose per gram” value ([4]; BONE, 5 MIN) was 2.11 % INJECTED DOSE PER GRAM and the “% injected dose per gram” value ([4]; BONE, 10 MIN) was 1.29 % INJECTED DOSE PER GRAM. The “% injected dose per gram” value ([4]; BONE, 15 MIN) was 1.36 % INJECTED DOSE PER GRAM, the “% injected dose per gram” value ([4]; BONE, 20 MIN) was 1.11 % INJECTED DOSE PER GRAM and the “% injected dose per gram” value ([4]; BONE, 30 MIN) was 0.72 % INJECTED DOSE PER GRAM. The “% injected dose per gram” value ([4]; GIT, 3 MIN) was 2.66 % INJECTED DOSE PER GRAM, the “% injected dose per gram” value ([4]; GIT, 5 MIN) was 2.88 % INJECTED DOSE PER GRAM and the “% injected dose per gram” value ([4]; GIT, 10 MIN) was 1.80 % INJECTED DOSE PER GRAM. The “% injected dose per gram” value ([4]; GIT, 15 MIN) was 2.92 % INJECTED DOSE PER GRAM, the “% injected dose per gram” value ([4]; GIT, 20 MIN) was 1.05 % INJECTED DOSE PER GRAM and the “% injected dose per gram” value ([4]; GIT, 30 MIN) was 0.55 % INJECTED DOSE PER GRAM. For the same compound, the “% injected dose per gram” value ([4]; HEART, 3 MIN) was 2.79 % INJECTED DOSE PER GRAM, the “% injected dose per gram” value ([4]; HEART, 5 MIN) was 3.00 % INJECTED DOSE PER GRAM and the “% injected dose per gram” value ([4]; HEART, 10 MIN) was 2.03 % INJECTED DOSE PER GRAM. For the same compound, the “% injected dose per gram” value ([4]; HEART, 15 MIN) was 1.56 % INJECTED DOSE PER GRAM, the “% injected dose per gram” value ([4]; HEART, 20 MIN) was 1.24 % INJECTED DOSE PER GRAM and the “% injected dose per gram” value ([4]; HEART, 30 MIN) was 0.50 % INJECTED DOSE PER GRAM. For the same compound, the “% injected dose per gram” value ([4]; KIDNEY, 3 MIN) was 22.41 % INJECTED DOSE PER GRAM, the “% injected dose per gram” value ([4]; KIDNEY, 5 MIN) was 18.99 % INJECTED DOSE PER GRAM and the “% injected dose per gram” value ([4]; KIDNEY, 10 MIN) was 13.41 % INJECTED DOSE PER GRAM. The “% injected dose per gram” value ([4]; KIDNEY, 15 MIN) was 10.26 % INJECTED DOSE PER GRAM, the “% injected dose per gram” value ([4]; KIDNEY, 20 MIN) was 9.98 % INJECTED DOSE PER GRAM and the “% injected dose per gram” value ([4]; KIDNEY, 30 MIN) was 5.95 % INJECTED DOSE PER GRAM. The “% injected dose per gram” value ([4]; LIVER, 3 MIN) was 1.94 % INJECTED DOSE PER GRAM, the “% injected dose per gram” value ([4]; LIVER, 5 MIN) was 2.00 % INJECTED DOSE PER GRAM and the “% injected dose per gram” value ([4]; LIVER, 10 MIN) was 1.46 % INJECTED DOSE PER GRAM. The “% injected dose per gram” value ([4]; LIVER, 15 MIN) was 1.24 % INJECTED DOSE PER GRAM, the “% injected dose per gram” value ([4]; LIVER, 20 MIN) was 1.04 % INJECTED DOSE PER GRAM and the “% injected dose per gram” value ([4]; LIVER, 30 MIN) was 0.72 % INJECTED DOSE PER GRAM. For the same compound, the “% injected dose per gram” value ([4]; LUNGS, 3 MIN) was 5.48 % INJECTED DOSE PER GRAM, the “% injected dose per gram” value ([4]; LUNGS, 5 MIN) was 5.74 % INJECTED DOSE PER GRAM and the “% injected dose per gram” value ([4]; LUNGS, 10 MIN) was 4.00 % INJECTED DOSE PER GRAM. The “% injected dose per gram” value ([4]; LUNGS, 15 MIN) was 3.25 % INJECTED DOSE PER GRAM, the “% injected dose per gram” value ([4]; LUNGS, 20 MIN) was 2.59 % INJECTED DOSE PER GRAM and the “% injected dose per gram” value ([4]; LUNGS, 30 MIN) was 1.13 % INJECTED DOSE PER GRAM. The “% injected dose per gram” value ([4]; MUSCLE, 3 MIN) was 1.98 % INJECTED DOSE PER GRAM, the “% injected dose per gram” value ([4]; MUSCLE, 5 MIN) was 3.17 % INJECTED DOSE PER GRAM and the “% injected dose per gram” value ([4]; MUSCLE, 10 MIN) was 1.73 % INJECTED DOSE PER GRAM. The “% injected dose per gram” value ([4]; MUSCLE, 15 MIN) was 2.40 % INJECTED DOSE PER GRAM, the “% injected dose per gram” value ([4]; MUSCLE, 20 MIN) was 2.13 % INJECTED DOSE PER GRAM and the “% injected dose per gram” value ([4]; MUSCLE, 30 MIN) was 0.50 % INJECTED DOSE PER GRAM. For the same compound, the “% injected dose per gram” value ([4]; SKIN, 3 MIN) was 5.63 % INJECTED DOSE PER GRAM, the “% injected dose per gram” value ([4]; SKIN, 5 MIN) was 6.18 % INJECTED DOSE PER GRAM and the “% injected dose per gram” value ([4]; SKIN, 10 MIN) was 4.86 % INJECTED DOSE PER GRAM. The “% injected dose per gram” value ([4]; SKIN, 15 MIN) was 4.49 % INJECTED DOSE PER GRAM, the “% injected dose per gram” value ([4]; SKIN, 20 MIN) was 3.41 % INJECTED DOSE PER GRAM and the “% injected dose per gram” value ([4]; SKIN, 30 MIN) was 1.45 % INJECTED DOSE PER GRAM. For the same compound, the “% injected dose per gram” value ([4]; SPLEEN, 3 MIN) was 1.96 % INJECTED DOSE PER GRAM, the “% injected dose per gram” value ([4]; SPLEEN, 5 MIN) was 2.01 % INJECTED DOSE PER GRAM and the “% injected dose per gram” value ([4]; SPLEEN, 10 MIN) was 1.26 % INJECTED DOSE PER GRAM. The “% injected dose per gram” value ([4]; SPLEEN, 15 MIN) was 1.09 % INJECTED DOSE PER GRAM, the “% injected dose per gram” value ([4]; SPLEEN, 20 MIN) was 0.93 % INJECTED DOSE PER GRAM and the “% injected dose per gram” value ([4]; SPLEEN, 30 MIN) was 0.39 % INJECTED DOSE PER GRAM. For the same compound, the “% injected dose per gram” value ([4]; STOMACH, 3 MIN) was 2.69 % INJECTED DOSE PER GRAM, the “% injected dose per gram” value ([4]; STOMACH, 5 MIN) was 3.11 % INJECTED DOSE PER GRAM and the “% injected dose per gram” value ([4]; STOMACH, 10 MIN) was 2.35 % INJECTED DOSE PER GRAM. For the same compound, the “% injected dose per gram” value ([4]; STOMACH, 15 MIN) was 1.91 % INJECTED DOSE PER GRAM, the “% injected dose per gram” value ([4]; STOMACH, 20 MIN) was 1.54 % INJECTED DOSE PER GRAM and the “% injected dose per gram” value ([4]; STOMACH, 30 MIN) was 0.60 % INJECTED DOSE PER GRAM.
